Measured values: ChEMBL document CHEMBL5604063, “ASAP - DENV-2 NS2B-NS3 protease fluorescence dose response” (2024)
pIC50: −log10 of the molar value.

Target: Genome polyprotein (dengue virus type 2, UniProt P29990)
Assay type: functional, Thailand/16681/1984

Chain of Genome polyprotein (P29990 1346-1475 limits assumed): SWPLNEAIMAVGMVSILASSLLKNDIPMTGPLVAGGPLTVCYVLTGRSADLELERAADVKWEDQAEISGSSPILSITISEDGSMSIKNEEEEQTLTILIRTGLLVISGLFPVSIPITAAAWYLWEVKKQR
Chain of Genome polyprotein (P29990 1476-2093 limits assumed): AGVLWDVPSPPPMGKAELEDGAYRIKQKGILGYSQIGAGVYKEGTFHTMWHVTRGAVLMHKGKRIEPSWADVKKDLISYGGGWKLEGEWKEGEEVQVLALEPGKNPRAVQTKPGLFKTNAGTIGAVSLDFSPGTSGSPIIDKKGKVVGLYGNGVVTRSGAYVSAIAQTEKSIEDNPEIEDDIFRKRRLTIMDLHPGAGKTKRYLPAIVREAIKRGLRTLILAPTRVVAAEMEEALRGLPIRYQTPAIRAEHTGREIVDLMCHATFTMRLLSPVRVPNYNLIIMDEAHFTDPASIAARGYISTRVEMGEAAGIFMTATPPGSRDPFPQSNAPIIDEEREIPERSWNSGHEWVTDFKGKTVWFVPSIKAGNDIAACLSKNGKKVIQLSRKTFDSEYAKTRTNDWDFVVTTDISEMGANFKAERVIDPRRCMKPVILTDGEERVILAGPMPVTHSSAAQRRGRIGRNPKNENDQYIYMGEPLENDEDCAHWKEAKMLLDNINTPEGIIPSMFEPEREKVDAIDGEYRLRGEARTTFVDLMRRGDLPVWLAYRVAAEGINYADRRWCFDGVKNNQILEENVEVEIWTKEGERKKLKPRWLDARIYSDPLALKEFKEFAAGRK

SMILES | pIC50
c1ccc(COc2cccc3[nH]cc(CN4CCC(c5cscn5)CC4)c23)cc1 | < 4.00
NCc1cccc(NC(=O)c2cc(F)cc(NC(=O)OCc3ccccc3)c2F)c1 | < 4.00
c1ccc2c(CNCc3ccc(-c4cscn4)cc3)c[nH]c2c1 | < 4.00
c1cnc2c(c1)CC[C@@H]2NCc1n[nH]c2ccccc12 | < 4.00
C[C@@H](Cc1c[nH]c2ccccc12)N1CCC(c2nc3ccccc3s2)CC1 | < 4.00
Cc1nocc1S(=O)(=O)N[C@H](C(=O)Nc1cccc(CN)c1)c1ccc(OCc2ccccc2)cc1 | < 4.00
O=C(c1cccnc1)N1CCN(Cc2c[nH]c3ccccc23)CC1 | < 4.00
Cc1ccc(-c2nc(NC(=O)[C@H](NC(=O)OCc3ccccc3)c3ccc(OCc4ccccc4)cc3)sc2CN(C)C)cc1 | < 4.00
CN(C)Cc1cc(NC(=O)c2cc(Cl)cc(NC(=O)OCc3ccccc3)c2)sn1 | < 4.00
NCc1cccc(NC(=O)c2cc(Cl)cc(CN)c2)c1 | < 4.00
NCc1cccc(NC(=O)[C@H](NC(=O)OCc2ccccc2)C2CCNCC2)c1 | < 4.00
NCc1cc(S(=O)(=O)Nc2ccc(Cl)cc2C(=O)O)ccc1Oc1ccccc1 | < 4.00
NCc1cccc(S(=O)(=O)Nc2cc(Cl)cc(NC(=O)OCc3ccccc3)c2)c1 | < 4.00
NCc1cccc(NC(=O)[C@H](NC(=O)OCc2ccccc2)c2cccc(OCC3CCOCC3)c2)c1 | < 4.00
O=C(O)c1cc(Cl)ccc1NS(=O)(=O)c1ccc(-c2cscn2)cc1 | 4.06
NCc1ccccc1Oc1ccc(S(=O)(=O)Nc2ccc(Cl)cc2C(=O)O)cc1 | < 4.00
CN1CCc2nc(NC(=O)c3cc(Cl)cc(NC(=O)OCc4ccccc4)c3)sc2C1 | < 4.00
COc1cc(NC(=O)OCc2ccccc2)nc(C(=O)Nc2cccc(CN)c2)c1 | < 4.00
CN(C)Cc1csc(NC(=O)[C@@H](NC(=O)OCc2ccccc2)c2ccc(OCc3ccccc3)cc2)n1 | < 4.00
COc1ncccc1S(=O)(=O)N[C@H](C(=O)Nc1cccc(CN)c1)c1ccc(OCc2ccccc2)cc1 | < 4.00
O=S(=O)(c1cccnc1)N1CCN(Cc2c[nH]c3ccccc23)CC1 | < 4.00
COC(=O)[C@H](NC(=O)OC(C)(C)C)c1ccc(-c2csc(C)c2)cc1 | < 4.00
Fc1cc(F)c2[nH]cc(CN3CCC(c4cscn4)CC3)c2c1F | < 4.00
CC1=NN(c2ccc(NS(=O)(=O)c3ccc(Cl)cc3C(=O)O)cn2)C(=O)C1 | < 4.00
COc1ccc(CN(C)C)cc1NC(=O)[C@@H](NC(=O)OCc1ccccc1)c1ccc(OCc2ccccc2)cc1 | < 4.00
Cn1nc2c(c1NC(=O)[C@@H](NC(=O)OCc1ccccc1)c1ccc(OCc3ccccc3)cc1)CNC2 | < 4.00

SMILES | pIC50
Cc1c(NC(=O)OCc2ccccc2)cc(C(F)(F)F)cc1C(=O)Nc1cccc(CN)c1 | 4.29
CS(=O)(=O)c1cc(NC(=O)OCc2ccccc2)cc(C(=O)Nc2cccc(CN)c2)c1 | < 4.00
COC(=O)C1(S(=O)(=O)N[C@H](C(=O)Nc2cccc(CN)c2)c2ccc(OCc3ccccc3)cc2)CCC1 | < 4.00
c1ccc(COc2ccc3[nH]cc(CN4CCC(c5cscn5)CC4)c3c2)cc1 | < 4.00
c1nc(C2CCN(Cc3n[nH]c4c3CCC4)CC2)cs1 | < 4.00
CCC1([C@H](NC(=O)OCc2ccccc2)C(=O)NCc2cccc(CN)c2)CCCCC1 | < 4.00
O=C(Nc1cc(Cl)cc(C(=O)Nc2n[nH]c3c2CNC3)c1)OCc1ccccc1 | 4.57
CC(C)(C)OC(=O)NCc1cccc(NC(=O)c2cc(N)cc(Cl)c2)c1 | < 4.00
Cc1c[nH]nc1CN1CCC(c2cscn2)CC1 | < 4.00
Cc1c(NC(=O)OCc2ccccc2)cc(C(=O)Nc2cccc(CN)c2)cc1C(F)(F)F | 4.04
O=C(Nc1cc(Cl)cc(C(=O)Nc2ncc([C@H]3CCCN3)s2)c1)OCc1ccccc1 | < 4.00
CC(C)(C)c1ccc2[nH]cc(CN3CCC(c4cscn4)CC3)c2c1 | < 4.00
CN1CCn2nc(NC(=O)c3cc(Cl)cc(NC(=O)OCc4ccccc4)c3)cc2C1 | < 4.00
c1nc(C2CCN(Cc3n[nH]c4c3COCC4)CC2)cs1 | < 4.00
CC(C)N1CCc2nc(NC(=O)c3cc(Cl)cc(NC(=O)OCc4ccccc4)c3)sc2C1 | < 4.00
CCc1cccc2c(CN3CCC(c4cscn4)CC3)c[nH]c12 | < 4.00
CC(C)c1cc(S(=O)(=O)N[C@H](C(=O)Nc2cccc(CN)c2)c2ccc(OCc3ccccc3)cc2)on1 | < 4.00
Cc1nc(CCCNCc2n[nH]c3ccccc23)cs1 | < 4.00
COc1cc(Br)ccc1[C@@H](NC(=O)OCc1ccccc1)C(=O)Nc1cccc(CN)c1 | 4.08
c1ccc(-c2c[nH]nc2CN2CCC(c3cscn3)CC2)cc1 | < 4.00
CC(C)(C)c1cc(CN2CCC(c3cscn3)CC2)n[nH]1 | < 4.00
c1ccc2sc(C3CCN(CCc4c[nH]c5ccccc45)CC3)nc2c1 | < 4.00
NC[C@H]1CC[C@H](NC(=O)c2cc(Cl)cc(NC(=O)OCc3ccccc3)c2)CC1 | < 4.00
CN(C)Cc1cc(NC(=O)[C@@H](NC(=O)OCc2ccccc2)c2ccc(OCc3ccccc3)cc2)ccc1Cl | < 4.00
NCc1cccc(NC(=O)[C@@H]2CCC[C@H](NC(=O)OCc3ccccc3)C2)c1 | < 4.00
Cn1nc2c(c1NC(=O)c1cc(Cl)cc(NC(=O)OCc3ccccc3)c1)CNC2 | < 4.00

SMILES | pIC50
c1ccc2c(CN[C@H]3CCc4ncsc4C3)n[nH]c2c1 | < 4.00
NCc1cc(S(=O)(=O)Nc2ccc(Cl)cc2C(=O)NCC(F)(F)F)ccc1Oc1ccccc1 | < 4.00
O=C1CN(Cc2c[nH]c3ccccc23)CCN1c1cccnc1 | < 4.00
COc1cc2c(CN3CCC(c4cscn4)CC3)c[nH]c2cc1Cl | < 4.00
CC1(C)CNC[C@H](C(=O)Nc2cccc(CN)c2)C1 | < 4.00
c1cc(CN2CCC(c3cscn3)CC2)[nH]n1 | < 4.00
c1cncc(N2CCCN(Cc3c[nH]c4ccccc34)CC2)c1 | < 4.00
O=C(O)c1cc(Cl)ccc1S(=O)(=O)N[C@H]1CC[C@H](Oc2cnccn2)CC1 | < 4.00
NCc1cccc(NC(=O)[C@H](NS(=O)(=O)c2cccnc2)c2ccc(OCc3ccccc3)cc2)c1 | < 4.00
Clc1cc(Cl)c2c(CN3CCC(c4cscn4)CC3)c[nH]c2c1 | < 4.00
N#Cc1ccc2[nH]cc(CN3CCC(c4cscn4)CC3)c2c1 | < 4.00
NCc1cccc(NC(=O)[C@H](NC(=O)OCc2ccccc2)c2cccc(OCc3ncccn3)c2)c1 | < 4.00
CCn1c(=O)c(N2CCC[C@H]2c2nncs2)nc2ccccc21 | < 4.00
COc1cc(NC(=O)OCc2ccccc2)cc(C(=O)Nc2cccc(CN)c2)c1 | < 4.00
NCc1cccc(NC(=O)c2cc(Cl)cc(CNC(=O)OCc3ccccc3)c2)c1 | 4.07
Cc1cc(CN(C)C)cc(NC(=O)[C@H](NC(=O)OCc2ccccc2)c2ccc(OCc3ccccc3)cc2)c1 | < 4.00
NCc1cccc(NC(=O)c2cc(NC(=O)OCc3ccccc3)cc(Cl)c2Cl)c1 | 4.06
c1ccc2c(CN3CC(c4cscn4)C3)c[nH]c2c1 | < 4.00
NCc1cccc(NC(=O)c2ccc(OCC(F)(F)F)c(NC(=O)OCc3ccccc3)c2)c1 | < 4.00
c1cc(-c2cc(CN3CCC(c4cscn4)CC3)n[nH]2)ccn1 | < 4.00
CCn1nc(-c2ccccc2)cc1NS(=O)(=O)c1ccc(Cl)cc1C(=O)O | < 4.00
C[C@H]1CNC[C@H](C(=O)Nc2cccc(CN)c2)C1 | < 4.00
Cc1nn(C)cc1S(=O)(=O)N[C@@H](C(=O)Nc1cccc(CN)c1)c1ccc(OCc2ccccc2)cc1 | < 4.00
O=C(N[C@@H](C(=O)Nc1nc2c(s1)CNC2)c1ccc(OCc2ccccc2)cc1)OCc1ccccc1 | < 4.00
N#Cc1cccc2c(CN3CCC(c4cscn4)CC3)c[nH]c12 | < 4.00
Cn1ccc(Nc2ccc(S(=O)(=O)Nc3ccc(Cl)cc3C(=O)O)cn2)n1 | < 4.00

SMILES | pIC50
Cn1ccnc1S(=O)(=O)N[C@@H](C(=O)Nc1cccc(CN)c1)c1ccc(OCc2ccccc2)cc1 | < 4.00
C1=C(c2cccnc2)CN(Cc2c[nH]c3ccccc23)CC1 | < 4.00
FC1(c2cccnc2)CN(Cc2c[nH]c3ccccc23)C1 | < 4.00
NCc1ccc(Oc2ccc(S(=O)(=O)Nc3ccc(Cl)cc3C(=O)NCC(F)(F)F)cc2)cc1 | < 4.00
Cc1ccc(CN(C)C)cc1NC(=O)[C@@H](NC(=O)OCc1ccccc1)c1ccc(OCc2ccccc2)cc1 | < 4.00
CN1CCn2nc(NC(=O)[C@@H](NC(=O)OCc3ccccc3)c3ccc(OCc4ccccc4)cc3)cc2C1 | < 4.00
c1cncc([C@@H]2CN(Cc3c[nH]c4ccccc34)CCO2)c1 | < 4.00
Cc1c(C(F)(F)F)n[nH]c1CN1CCC(c2cscn2)CC1 | < 4.00
CCS(=O)(=O)N[C@@H](C(=O)Nc1cccc(CN)c1)c1ccc(OCc2ccccc2)cc1 | < 4.00
CC(C)N1CCc2nc(NC(=O)[C@H](NC(=O)OCc3ccccc3)c3ccc(OCc4ccccc4)cc3)sc2C1 | < 4.00
Cn1nccc1CN1CCC(NS(=O)(=O)c2ccc(Cl)cc2C(=O)O)CC1 | < 4.00
NCc1cccc(NC(=O)[C@@H]2C[C@H](NC(=O)OCc3ccccc3)[C@H]3C[C@H]32)c1 | < 4.00
O=C(Nc1cccnc1)C1CCN(Cc2c[nH]c3ccccc23)CC1 | < 4.00
NCc1cccc(NC(=O)[C@H](NS(=O)(=O)C[C@H]2COCCO2)c2ccc(OCc3ccccc3)cc2)c1 | < 4.00
Cc1csc(COc2cccc([C@H](NC(=O)OCc3ccccc3)C(=O)Nc3cccc(CN)c3)c2)n1 | 4.56
O=C(N[C@@H](C(=O)Nc1ncc([C@H]2CCCN2)s1)c1ccc(OCc2ccccc2)cc1)OCc1ccccc1 | < 4.00
CN(Cc1cccnc1)Cc1c[nH]c2ccccc12 | < 4.00
Cc1[nH]c2ccccc2c1CN1CCC(c2nc3ccccc3s2)CC1 | < 4.00
C[C@H]1CC[C@H](CS(=O)(=O)N[C@H](C(=O)Nc2cccc(CN)c2)c2ccc(OCc3ccccc3)cc2)CC1 | 4.47
COCc1ccccc1Nc1ccc(S(=O)(=O)Nc2ccc(Cl)cc2C(=O)O)cn1 | < 4.00
NCc1cccc(NC(=O)[C@H](NS(=O)(=O)Cc2ccccc2)c2ccc(OCc3ccccc3)cc2)c1 | < 4.00
NC[C@H]1CC[C@H](CNC(=O)c2cc(Cl)cc(NC(=O)OCc3ccccc3)c2)CC1 | < 4.00
NCc1cccc(NC(=O)[C@H](NC(=O)OCc2ccccc2)c2cccc(OCc3ccccn3)c2)c1 | < 4.00
NCc1ccc(Oc2ccc(S(=O)(=O)Nc3ccc(Cl)cc3C(=O)O)cc2)cc1 | < 4.00
